In patent US20250145633A1, “SUBSTITUTED FURANOPYRIMIDINE COMPOUNDS AS PDE1 INHIBITORS” (Dart NeuroScience, LLC, priority 2017, published 2025):

Target: human PDE1B enzyme (Homo sapiens (Human), UniProt Q01064)
Assay: IMAP TR-FRET PDE1B enzymatic assay
Type: biochemical
Conditions: negative log of half-maximal molar inhibitory concentration, 200 nM FAM-cAMP, values given as bins; for IC50: read-out: PDE1b (pIC50) (converted)
Summary of the method: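 Full-length GST-tagged human PDE1B (250 pg/well) in IMAP BSA buffer with 10 U/ml calmodulin and 2.5 mM CaCl2; compound pre-incubated 5 min at room temperature, then 200 nM (final) FAM-cAMP for 30 min. IMAP binding reagent/Tb added, 1 h; TR-FRET 520/490 ratio read. IC50 from sigmoidal dose-response fit.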

| Structure (SMILES) | IC50 [µM] | PDE1b (pIC50) |
| --- | --- | --- |
| Cc1oc2ncnc(NC3(C)CC3)c2c1C(=O)n1cc(C(C)C)cn1 [Example 404, 6-Methyl-N-(1-methylcyclopropyl)-5-[4-(propan-2-yl)-1H-pyrazole-1-carbonyl]furo[2,3-d]pyrimidin-4-amine] | 0.01 to 0.1 | – |
| Cc1oc2ncnc(NC3(C)CC3)c2c1C(=O)n1cc(-c2ccccc2)cn1 [Example 405, 6-Methyl-N-(1-methylcyclopropyl)-5-(4-phenyl-1H-pyrazole-1-carbonyl)furo[2,3-d]pyrimidin-4-amine] | 0.1 to 1 | – |
| COc1ccc(-c2cnn(C(=O)c3c(C)oc4ncnc(NC5(C)CC5)c34)c2)cc1 [Example 406, 5-[4-(4-Methoxyphenyl)-1H-pyrazole-1-carbonyl]-6-methyl-N-(1-methylcyclopropyl)furo[2,3-d]pyrimidin-4-amine] | 0.1 to 1 | – |
| Cc1oc2ncnc(NC3(C)CC3)c2c1C(=O)n1cc(-c2ccc(F)cc2)cn1 [Example 407, 5-[4-(4-Fluorophenyl)-1H-pyrazole-1-carbonyl]-6-methyl-N-(1-methylcyclopropyl)furo[2,3-d]pyrimidin-4-amine] | 0.01 to 0.1 | – |
| Cc1cnn(C(=O)c2c(C)oc3ncnc(NC4(C)CC4)c23)c1 [Example 408, 6-Methyl-5-(4-methyl-1H-pyrazole-1-carbonyl)-N-(1-methylcyclopropyl)furo[2,3-d]pyrimidin-4-amine] | 0.1 to 1 | – |
| Cc1nn(C(=O)c2c(C)oc3ncnc(NC4(C)CC4)c23)c(C)c1C [Example 409, 6-Methyl-N-(1-methylcyclopropyl)-5-(trimethyl-1H-pyrazole-1-carbonyl)furo[2,3-d]pyrimidin-4-amine] | 0.01 to 0.1 | – |
| Cc1oc2ncnc(NC3(C)CC3)c2c1C(=O)n1cccn1 [Example 410, 6-Methyl-N-(1-methylcyclopropyl)-5-(1H-pyrazole-1-carbonyl)furo[2,3-d]pyrimidin-4-amine] | 0.1 to 1 | – |
| Cc1cc(C)n(C(=O)c2c(C)oc3ncnc(NC4(C)CC4)c23)n1 [Example 411, 5-(3,5-Dimethyl-1H-pyrazole-1-carbonyl)-6-methyl-N-(1-methylcyclopropyl)furo[2,3-d]pyrimidin-4-amine] | 0.01 to 0.1 | – |
| COc1cccc(-c2cnn(C(=O)c3c(C)oc4ncnc(NC5(C)CC5)c34)c2)c1 [Example 412, 5-[4-(3-Methoxyphenyl)-1H-pyrazole-1-carbonyl]-6-methyl-N-(1-methylcyclopropyl)furo[2,3-d]pyrimidin-4-amine] | 0.01 to 0.1 | – |
| Cc1oc2ncnc(NC3(C)CC3)c2c1C(=O)NCC1(C)CC1 [Example 413, 6-Methyl-4-[(1-methylcyclopropyl)amino]-N-[(1-methylcyclopropyl)methyl]furo[2,3-d]pyrimidine-5-carboxamide] | 0.01 to 0.1 | – |
| Cc1oc2ncnc(NC3(C)CC3)c2c1C(=O)N1CCC(Cc2ccc(F)cc2)C1 (stereo not shown) [Example 414, 5-{3-[(4-Fluorophenyl)methyl]pyrrolidine-1-carbonyl}-6-methyl-N-(1-methylcyclopropyl)furo[2,3-d]pyrimidin-4-amine] | 0.01 to 0.1 | – |
| Cc1nn(C(=O)c2c(C)oc3ncnc(NC4(C)CC4)c23)c(C)c1CN1CCOCC1 [Example 415, 5-[3,5-Dimethyl-4-(morpholin-4-ylmethyl)-1H-pyrazole-1-carbonyl]-6-methyl-N-(1-methylcyclopropyl)furo[2,3-d]pyrimidin-4-amine] | 0.01 to 0.1 | – |
| Cc1oc2ncnc(NC3(C)CC3)c2c1C(=O)Nc1ccn(C)n1 [Example 416, 6-Methyl-N-(1-methyl-1H-pyrazol-3-yl)-4-[(1-methylcyclopropyl)amino]furo[2,3-d]pyrimidine-5-carboxamide] | 0.01 to 0.1 | – |
| Cc1oc2ncnc(NC3(C)CC3)c2c1C(=O)Nc1cnn(C)c1C [Example 417, N-(1,5-Dimethyl-1H-pyrazol-4-yl)-6-methyl-4-[(1-methylcyclopropyl)amino]furo[2,3-d]pyrimidine-5-carboxamide] | 0.01 to 0.1 | – |
| Cc1nn(C)c(C)c1NC(=O)c1c(C)oc2ncnc(NC3(C)CC3)c12 [Example 418, 6-Methyl-4-[(1-methylcyclopropyl)amino]-N-(trimethyl-1H-pyrazol-4-yl)furo[2,3-d]pyrimidine-5-carboxamide] | 0.01 to 0.1 | – |
| Cc1oc2ncnc(NC3(C)CC3)c2c1C(=O)Nc1cnn(-c2ccccn2)c1 [Example 419, 6-Methyl-4-[(1-methylcyclopropyl)amino]-N-[1-(pyridin-2-yl)-1H-pyrazol-4-yl]furo[2,3-d]pyrimidine-5-carboxamide] | 0.01 to 0.1 | – |
| COCCn1nc(C)c(NC(=O)c2c(C)oc3ncnc(NC4(C)CC4)c23)c1C [Example 420, N-[1-(2-Methoxyethyl)-3,5-dimethyl-1H-pyrazol-4-yl]-6-methyl-4-[(1-methylcyclopropyl)amino]furo[2,3-d]pyrimidine-5-carboxamide] | 0.01 to 0.1 | – |

| Structure (SMILES) | IC50 [µM] | PDE1b (pIC50) |
| --- | --- | --- |
| Cc1oc2ncnc(NC3(C)CC3)c2c1C(=O)Nc1cnn(CCN2CCOCC2)c1 [Example 421, 6-Methyl-4-[(1-methylcyclopropyl)amino]-N-{1-[2-(morpholin-4-yl)ethyl]-1H-pyrazol-4-yl}furo[2,3-d]pyrimidine-5-carboxamide] | 0.01 to 0.1 | – |
| COc1cccc(C2CCN(C(=O)c3c(C)oc4ncnc(NC5(C)CC5)c34)CC2)n1 [Example 422, 5-[4-(6-Methoxypyridin-2-yl)piperidine-1-carbonyl]-6-methyl-N-(1-methylcyclopropyl)furo[2,3-d]pyrimidin-4-amine] | – | >8 |
| COc1cnc(C2CCN(C(=O)c3c(C)oc4ncnc(NC5(C)CC5)c34)CC2)nc1C [Example 423, 5-[4-(5-Methoxy-4-methylpyrimidin-2-yl)piperidine-1-carbonyl]-6-methyl-N-(1-methylcyclopropyl)furo[2,3-d]pyrimidin-4-amine] | 0.01 to 0.1 | – |
| Cc1oc2ncnc(NC3(C)CC3)c2c1C(=O)N1CCc2c(nc(-c3ccc(F)cc3)[nH]c2=O)C1 [Example 424, 2-(4-Fluorophenyl)-7-{6-methyl-4-[(1-methylcyclopropyl)amino]furo[2,3-d]pyrimidine-5-carbonyl}-3H,4H,5H,6H,7H,8H-pyrido[3,4-d]pyrimidin-4-one] | 0.01 to 0.1 | – |
| COCc1nc2c(c(=O)[nH]1)CCN(C(=O)c1c(C)oc3ncnc(NC4(C)CC4)c13)C2 [Example 425, 2-(Methoxymethyl)-7-{6-methyl-4-[(1-methylcyclopropyl)amino]furo[2,3-d]pyrimidine-5-carbonyl}-3H,4H,5H,6H,7H,8H-pyrido[3,4-d]pyrimidin-4-one] | 0.1 to 1 | – |
| Cc1cccc(NC(=O)c2c(C)oc3ncnc(NC4(C)CC4)c23)n1 [Example 426, 6-Methyl-4-[(1-methylcyclopropyl)amino]-N-(6-methylpyridin-2-yl)furo[2,3-d]pyrimidine-5-carboxamide] | 0.01 to 0.1 | – |
| Cc1ccnc(NC(=O)c2c(C)oc3ncnc(NC4(C)CC4)c23)c1 [Example 427, 6-Methyl-4-[(1-methylcyclopropyl)amino]-N-(4-methylpyridin-2-yl)furo[2,3-d]pyrimidine-5-carboxamide] | 0.1 to 1 | – |
| Cc1cccnc1NC(=O)c1c(C)oc2ncnc(NC3(C)CC3)c12 [Example 428, 6-Methyl-4-[(1-methylcyclopropyl)amino]-N-(3-methylpyridin-2-yl)furo[2,3-d]pyrimidine-5-carboxamide] | 0.1 to 1 | – |
| COCCn1cc(NC(=O)c2c(C)oc3ncnc(NC4(C)CC4)c23)cn1 [Example 429, N-[1-(2-Methoxyethyl)-1H-pyrazol-4-yl]-6-methyl-4-[(1-methylcyclopropyl)amino]furo[2,3-d]pyrimidine-5-carboxamide] | 0.01 to 0.1 | – |
| Cc1oc2ncnc(NC3(C)CC3)c2c1C(=O)NC12CC(C1)C2 [Example 430, N-{Bicyclo[1.1.1]pentan-1-yl}-6-methyl-4-[(1-methylcyclopropyl)amino]furo[2,3-d]pyrimidine-5-carboxamide] | 0.01 to 0.1 | – |
| Cc1oc2ncnc(NC3(C)CC3)c2c1C(=O)N1CCC(c2ncc(C(F)(F)F)cn2)CC1 [Example 431, 6-Methyl-N-(1-methylcyclopropyl)-5-{4-[5-(trifluoromethyl)pyrimidin-2-yl]piperidine-1-carbonyl}furo[2,3-d]pyrimidin-4-amine] | 0.01 to 0.1 | – |
| Cc1cn(C)nc1NC(=O)c1c(C)oc2ncnc(NC3(C)CC3)c12 [Example 432, N-(1,4-Dimethyl-1H-pyrazol-3-yl)-6-methyl-4-[(1-methylcyclopropyl)amino]furo[2,3-d]pyrimidine-5-carboxamide] | 0.01 to 0.1 | – |
| Cc1nc(NC(=O)c2c(C)oc3ncnc(NC4(C)CC4)c23)sc1C [Example 433, N-(Dimethyl-1,3-thiazol-2-yl)-6-methyl-4-[(1-methylcyclopropyl)amino]furo[2,3-d]pyrimidine-5-carboxamide] | 0.01 to 0.1 | – |
| Cc1ccc(NC(=O)c2c(C)oc3ncnc(NC4(C)CC4)c23)nn1 [Example 434, 6-Methyl-4-[(1-methylcyclopropyl)amino]-N-(6-methylpyridazin-3-yl)furo[2,3-d]pyrimidine-5-carboxamide] | 0.1 to 1 | – |
| Cc1oc2ncnc(NC3(C)CC3)c2c1C(=O)Nc1cn(C)cn1 [Example 435, 6-Methyl-N-(1-methyl-1H-imidazol-4-yl)-4-[(1-methylcyclopropyl)amino]furo[2,3-d]pyrimidine-5-carboxamide] | 0.1 to 1 | – |
| Cc1nc(NC(=O)c2c(C)oc3ncnc(NC4(C)CC4)c23)ccc1F [Example 436, N-(5-Fluoro-6-methylpyridin-2-yl)-6-methyl-4-[(1-methylcyclopropyl)amino]furo[2,3-d]pyrimidine-5-carboxamide] | 0.01 to 0.1 | – |
| Cc1cncc(NC(=O)c2c(C)oc3ncnc(NC4(C)CC4)c23)n1 [Example 437, 6-Methyl-4-[(1-methylcyclopropyl)amino]-N-(6-methylpyrazin-2-yl)furo[2,3-d]pyrimidine-5-carboxamide] | 0.1 to 1 | – |
